Assay results reported in US9023616B2, “Oil producing microbes and method of modification thereof” (DSM Nutritional Products AG, priority 2006, dated 2015).
Entries after “also recorded” stand apart in the source; their conditions may differ.

Test system: ONC-T18
Test: Fatty acid production antagonist supplementation of ONC-T18 culture, fatty acid profile by FAME GC-FID
Type: cell-based, Thraustochytrium sp. ONC-T18
Description: Media containing 25 g/l sea salt and 1 g/l yeast extract was autoclaved at 120° C. for 20 minutes. Sterilized glucose was added to the media at a concentration of 9 g/l. Sethoxydim (Supleco) was dissolved in dimethyl sulfoxide at a concentration of 5 mg/ml was then added to the media at to represent a final concentration of 100 µM. 1 ml of a 24 hour pre-culture of ONC-T 18 that had been cultured in the same media was added. Culturing was carried out in a shaker (130 rpm) for four days at room temperature. After the incubation period, cells were harvested by centrifugation at 4300 rpm for 10 minutes. The cell pellets were then freeze-dried, weighed and the oil was extracted from the cells.
(§1) The lipids were extracted and derivatized to fatty acid methyl esters (FAME) for gas chromatography analysis (GC). Transesterification and extraction was done using 200 mg freeze dried cells, with C19:0 as internal standard, added transesterification reaction mix (methanol:hydrochloric acid:chloroform, 10:1:1) mixed and heated at 90° C. for 2 hours, then allowed to cool at room temperature. FAMEs were extracted by adding 1 ml water, and 2 ml hexane:chloroform (4:1), and allow organic and aqueous phases to separate. The organic layer was extracted and treated with 0.5 g of anhydrous sodium sulfate to remove particulates and residual water. The organic solvents were evaporated under a stream of argon. The FAMEs were re-suspended in 5 ml of iso-octane and analyzed by GC-FID. The percent conversion was calculated by dividing the product produced by the sum of (the product produced plus the substrate added) and then multiplying by 100.
Media containing 6 g/l sea salt, 2 g/l yeast extract, and 8 g/l L-glutamic acid monosodium salt hydrate was autoclaved at 120° C. for 20 minutes. Sterilized D+-glucose was then added to this media at a concentration of 40 g/l. Cerulenin dissolved in ethanol at a concentration of 5 mg/ml was added to 250 ml flask and the solvent was evaporated for 1 hour prior to adding the media to the flask. The amount of cerulenin in the flask represented a final concentration of 20 mg/l. ONC-T18 was then added to the medium from a plate culture and culturing occurred in a shaker (130 rpm) at room temperature for four days. After the incubation period, cells were harvested by centrifugation at 4300 rpm for 10 minutes, washed once with distilled water, and then centrifuged again at 4300 rpm for 10 minutes. The cell pellets were then freeze-dried, weighed and the oil was extracted from the cells.
as §1, with “produced+the” for “produced plus the”
Media containing 6 g/l sea salt, 2 g/l yeast extract, and 8 g/l L-glutamic acid monosodium salt hydrate was autoclaved at 120° C. for 20 minutes. Sterilized D+-glucose wad then added at a concentration of 5 g/l or was not added to the media. Oleic acid was added to the media to represent a final concentration of 2 ml/l. […]

[1] = presence of the antagonist, oleic acid without glucose
[2] = oleic acid in combination with glucoase

COc1cc(CNC(=O)CCCC/C=C/C(C)C)ccc1O [capsaicin]
C16:0 content in ONC-T18, change versus control (in words) (antagonist added to medium): decrease in the content of C16:0 | C16:1 content in ONC-T18, change versus control (in words) (antagonist added to medium): increase the content of C16:1 | adrenic acid, lipid as percentage of total fatty acid [1]: 0.46% | arachidic acid, lipid as percentage of total fatty acid [1]: 0.20% | arachidonic acid, lipid as percentage of total fatty acid [1]: 0.78% | behenic acid, lipid as percentage of total fatty acid [1]: 0.00% | docosadienoic acid, lipid as percentage of total fatty acid [1]: 0.17% | docosahexaenoic acid, lipid as percentage of total fatty acid [1]: 16.86% | docosapentaenoic acid n-3, lipid as percentage of total fatty acid [1]: 0.31% | docosapentaenoic acid n-6, lipid as percentage of total fatty acid [1]: 5.19% | eicosadienoic acid, lipid as percentage of total fatty acid [1]: 0.23% | eicosapentaenoic acid, lipid as percentage of total fatty acid [1]: 1.38% | eicosatetraenoic acid, lipid as percentage of total fatty acid [1]: 0.27% | eicosatrienoic acid, lipid as percentage of total fatty acid [1]: 0.00% | eicosenoic acid, lipid as percentage of total fatty acid [1]: 0.00% | heneicosapentaenoic acid, lipid as percentage of total fatty acid [1]: 0.00% | hexacosanoic acid, lipid as percentage of total fatty acid [1]: 0.00% | homo-gamma-linolenic acid, lipid as percentage of total fatty acid [1]: 0.22% | lignoceric acid, lipid as percentage of total fatty acid [1]: 0.00% | margaric acid, lipid as percentage of total fatty acid [1]: 0.19% | myristic acid, lipid as percentage of total fatty acid [1]: 21.86% | myristoleic acid, lipid as percentage of total fatty acid [1]: 0.28% | nervonic acid, lipid as percentage of total fatty acid [1]: 0.00% | oleic acid, lipid as percentage of total fatty acid [1]: 0.00% | palmitic acid, lipid as percentage of total fatty acid [1]: 24.19% | palmitoleic acid, lipid as percentage of total fatty acid [1]: 17.98% | pentadecanoic acid, lipid as percentage of total fatty acid [1]: 0.91% | pentadecenoic acid, lipid as percentage of total fatty acid [1]: 0.23% | stearic acid, lipid as percentage of total fatty acid [1]: 1.60% | vaccenic acid, lipid as percentage of total fatty acid [1]: 6.67%

C/C=C/C/C=C/CCC(=O)[C@H]1O[C@H]1C(N)=O [cerulenin]
C16:0 content in ONC-T18, change versus control (in words) (antagonist added to medium): increases | DHA accumulated in ONC-T18, change versus control (in words) (antagonist added to medium): increases; also recorded: increase in the content and proportion of DHA | adrenic acid, lipid as percentage of total fatty acid [1]: 0.00% | arachidic acid, lipid as percentage of total fatty acid [1]: 0.41% | arachidonic acid, lipid as percentage of total fatty acid [1]: 0.30% | behenic acid, lipid as percentage of total fatty acid [1]: 0.11% | docosadienoic acid, lipid as percentage of total fatty acid [1]: 0.14% | docosahexaenoic acid, lipid as percentage of total fatty acid [1]: 19.97% | docosapentaenoic acid n-3, lipid as percentage of total fatty acid [1]: 0.23% | docosapentaenoic acid n-6, lipid as percentage of total fatty acid [1]: 5.83% | eicosadienoic acid, lipid as percentage of total fatty acid [1]: 0.17% | eicosapentaenoic acid, lipid as percentage of total fatty acid [1]: 1.17% | eicosatetraenoic acid, lipid as percentage of total fatty acid [1]: 0.36% | eicosatrienoic acid, lipid as percentage of total fatty acid [1]: 0.00% | eicosenoic acid, lipid as percentage of total fatty acid [1]: 0.19% | heneicosapentaenoic acid, lipid as percentage of total fatty acid [1]: 1.24% | hexacosanoic acid, lipid as percentage of total fatty acid [1]: 0.23% | homo-gamma-linolenic acid, lipid as percentage of total fatty acid [1]: 0.20% | lignoceric acid, lipid as percentage of total fatty acid [1]: 0.00% | margaric acid, lipid as percentage of total fatty acid [1]: 0.74% | myristic acid, lipid as percentage of total fatty acid [1]: 11.03% | myristoleic acid, lipid as percentage of total fatty acid [1]: 0.00% | nervonic acid, lipid as percentage of total fatty acid [1]: 0.00% | oleic acid, lipid as percentage of total fatty acid [1]: 0.29% | palmitic acid, lipid as percentage of total fatty acid [1]: 48.98% | palmitoleic acid, lipid as percentage of total fatty acid [1]: 2.22% | pentadecanoic acid, lipid as percentage of total fatty acid [1]: 3.23% | pentadecenoic acid, lipid as percentage of total fatty acid [1]: 0.10% | stearic acid, lipid as percentage of total fatty acid [1]: 1.86% | vaccenic acid, lipid as percentage of total fatty acid [1]: 1.24%

CCCCCCCC/C=C\CCCCCCCC(=O)O [oleic acid]
DHA accumulated in ONC-T18, change versus control (in words) (antagonist added to medium): most of the oleic acid was converted into DHA; also recorded: more DHA content was observed; also recorded: increase in the content and proportion of DHA | EPA in ONC-T18 fatty acid profile, change versus control (in words) (antagonist added to medium): elevation of the EPA content; also recorded: elevated level of EPA | adrenic acid, lipid as percentage of total fatty acid [2]: 0.28% | arachidic acid, lipid as percentage of total fatty acid [2]: 0.34% | arachidonic acid, lipid as percentage of total fatty acid [2]: 0.46% | behenic acid, lipid as percentage of total fatty acid [2]: 0.00% | docosadienoic acid, lipid as percentage of total fatty acid [2]: 0.43% | docosahexaenoic acid, lipid as percentage of total fatty acid [2]: 24.65% | docosapentaenoic acid n-3, lipid as percentage of total fatty acid [2]: 0.39% | docosapentaenoic acid n-6, lipid as percentage of total fatty acid [2]: 6.46% | eicosadienoic acid, lipid as percentage of total fatty acid [2]: 0.36% | eicosapentaenoic acid, lipid as percentage of total fatty acid [2]: 2.60% | eicosatetraenoic acid, lipid as percentage of total fatty acid [2]: 0.24% | eicosatrienoic acid, lipid as percentage of total fatty acid [2]: 0.00% | eicosenoic acid, lipid as percentage of total fatty acid [2]: 0.30% | heneicosapentaenoic acid, lipid as percentage of total fatty acid [2]: 0.79% | hexacosanoic acid, lipid as percentage of total fatty acid [2]: 0.00% | homo-gamma-linolenic acid, lipid as percentage of total fatty acid [2]: 0.30% | lignoceric acid, lipid as percentage of total fatty acid [2]: 0.00% | margaric acid, lipid as percentage of total fatty acid [2]: 0.17% | myristic acid, lipid as percentage of total fatty acid [2]: 8.04% | myristoleic acid, lipid as percentage of total fatty acid [2]: 0.00% | nervonic acid, lipid as percentage of total fatty acid [2]: 0.00% | oleic acid, lipid as percentage of total fatty acid [2]: 9.49% | palmitic acid, lipid as percentage of total fatty acid [2]: 33.18% | palmitoleic acid, lipid as percentage of total fatty acid [2]: 4.22% | pentadecanoic acid, lipid as percentage of total fatty acid [2]: 0.73% | pentadecenoic acid, lipid as percentage of total fatty acid [2]: 0.00% | stearic acid, lipid as percentage of total fatty acid [2]: 1.60% | vaccenic acid, lipid as percentage of total fatty acid [2]: 4.45% | adrenic acid, lipid as percentage of total fatty acid [1]: 0.60% | arachidic acid, lipid as percentage of total fatty acid [1]: 0.00% | arachidonic acid, lipid as percentage of total fatty acid [1]: 0.72% | behenic acid, lipid as percentage of total fatty acid [1]: 0.00% | docosadienoic acid, lipid as percentage of total fatty acid [1]: 0.68% | docosahexaenoic acid, lipid as percentage of total fatty acid [1]: 33.16% | docosapentaenoic acid n-3, lipid as percentage of total fatty acid [1]: 0.39% | docosapentaenoic acid n-6, lipid as percentage of total fatty acid [1]: 7.58% | eicosadienoic acid, lipid as percentage of total fatty acid [1]: 0.51% | eicosapentaenoic acid, lipid as percentage of total fatty acid [1]: 5.47% | eicosatetraenoic acid, lipid as percentage of total fatty acid [1]: 0.00% | eicosatrienoic acid, lipid as percentage of total fatty acid [1]: 0.00% | eicosenoic acid, lipid as percentage of total fatty acid [1]: 0.00% | heneicosapentaenoic acid, lipid as percentage of total fatty acid [1]: 0.20% | hexacosanoic acid, lipid as percentage of total fatty acid [1]: 0.00% | homo-gamma-linolenic acid, lipid as percentage of total fatty acid [1]: 0.61% | lignoceric acid, lipid as percentage of total fatty acid [1]: 0.00% | margaric acid, lipid as percentage of total fatty acid [1]: 0.28% | myristic acid, lipid as percentage of total fatty acid [1]: 1.38% | myristoleic acid, lipid as percentage of total fatty acid [1]: 0.00% | nervonic acid, lipid as percentage of total fatty acid [1]: 0.00% | oleic acid, lipid as percentage of total fatty acid [1]: 25.36% | palmitic acid, lipid as percentage of total fatty acid [1]: 16.67% | palmitoleic acid, lipid as percentage of total fatty acid [1]: 1.06% | pentadecanoic acid, lipid as percentage of total fatty acid [1]: 0.49% | pentadecenoic acid, lipid as percentage of total fatty acid [1]: 0.00% | stearic acid, lipid as percentage of total fatty acid [1]: 1.56% | vaccenic acid, lipid as percentage of total fatty acid [1]: 2.68%
